Tests used:
Format in all cases: in vivo
[1] = tested on: Glucose 6-phosphatase (G6P); experiment: Real-time PCR gene expression in peripheral tissues: G6P; settings: liver; C57bl6j mice, high fat diet, 100 mg/kg/body weight in diet, 5 weeks
Experimental: (§1) The expression of 45 genes was measured by real-time PCR in peripheral tissues to identify genes that were differentially expressed in response to oral administration of oleoylethanolamide (OEA) or a non-hydrolysable OEA analog (KDS 5104), which affect satiety, lipid metabolism, fat utilization, food intake, and body fat mass.
(§2) Animals, diet, and experimental design. Adult male C57bl6j mice purchased at 8 weeks of age were individually housed and maintained ad libitum on high fat diet and water for 2 weeks. Seven mice were randomly allocated in 3 groups and fed with a high fat diet (lipids represented 50% of daily energy) for 2 weeks. […]
(§3) RNA extraction and gene expression. […] The RNA concentration was determined on nanodrop from the absorbance at 260 nm. […] Real-time quantitative PCR (RT-qPCR) were performed on cDNA obtained as described above using a high through put system (Biomek 3000, Beckman & Coulter, Fullerton, USA) and a Lightcycler 480 (Roche/Hitachi, Basel, Switzerland) with SYBR Green Master mix+kit (Eurogentec, Philadelphia, USA). […] Values were expressed as ratio of RNA levels relative to control mice (diets with 0 mg of OEA/kg/body weight) using ΔΔ(Ct) (Livak K J & Schmittgen T D, 2001, Methods 25:402-8). Gene expression of the following genes was measured (abbreviation and GenBank Accession shown in parentheses). […]

Visfatin = experiment: Real-time PCR gene expression in peripheral tissues: visfatin; settings: C57bl6j mice, high fat diet, 100 mg/kg/body weight in diet, 5 weeks
Experimental: as §1
(§4) Animals, diet, and experimental design. Adult male C57bl6j mice purchased at 8 weeks of age were individually housed and maintained ad libitum on high fat diet and water for 2 weeks. Seven mice were randomly allocated in 3 groups and fed with a high fat diet (lipids represented 50% of daily energy) for 2 weeks. For one kilogram, the composition of the high fat diet was: 235 g casein, 201 g saccharose, 3.5 g L-cystine, 85 g starch, 116 g maltodextrin, 60 g cellulose, 12 g vitamins mix (AIN-93M, UPAE, Jouy-en-Josas, France), 51.5 g mineral mix (AIN-93Vx, UPAE, Jouy-en-Josas, France), and 236 g lard. Then, either OEA or KDS 5104 was added to the diet at a concentration of 100 mg/kg/body weight. The mice were kept under treatment for 5 weeks.
(§5) Sampling. At the end of the experimental period, mice were sacrificed by blood drawing (cardiac puncture) after anesthesia with isoflurane. Plasma was obtained by centrifugation (1,000 g for 10 min at 4° C.). Mesenteric, epididymal, inguinal and peritoneal adipose depots, as well as liver, stomach, small intestine mucosa, pancreas, and gastrocnemian muscle were removed and frozen into liquid nitrogen. Plasma, urine, feces, and organ samples were kept at −80° C. until analysis.
(§6) RNA extraction and gene expression. Total RNA from liver, intestine mucous membrane, adipose tissues, gastrocnemian muscle, pancreas and stomach were extracted with TRIzol reagent (Invitrogen, Carlsbad, USA) according to the manufacturer's instruction. The RNA concentration was determined on nanodrop from the absorbance at 260 nm. […] Real-time quantitative PCR (RT-qPCR) were performed on cDNA obtained as described above using a high through put system (Biomek 3000, Beckman & Coulter, Fullerton, USA) and a Lightcycler 480 (Roche/Hitachi, Basel, Switzerland) with SYBR Green Master mix+kit (Eurogentec, Philadelphia, USA). […] Values were expressed as ratio of RNA levels relative to control mice (diets with 0 mg of OEA/kg/body weight) using ΔΔ(Ct) (Livak K J & Schmittgen T D, 2001, Methods 25:402-8). Gene expression of the following genes was measured (abbreviation and GenBank Accession shown in parentheses).
(§7) Statistical analysis. […] Daily food intake was analyzed using two-way ANOVA on Statview software. […] For statistical analysis of the gene expression data, values were calculated relative to 18S expression for each mouse and gene.

[2] = tested on: overall gene expression pattern; experiment: Multivariate statistical analysis of overall gene expression pattern; settings: C57bl6j mice, high fat diet, 100 mg/kg/body weight in diet, 5 weeks
Experimental: as §1, §2, §3

Cholescystokinin (CCK) = experiment: Real-time PCR gene expression in peripheral tissues: CCK; settings: proximal intestine; C57bl6j mice, high fat diet, 100 mg/kg/body weight in diet, 5 weeks
Experimental: as §1, §2, §3

[3] = tested on: Oleoylethanolamide synthase (OEA synthase); experiment: Real-time PCR gene expression in peripheral tissues: OEA synthase; settings: proximal intestine; C57bl6j mice, high fat diet, 100 mg/kg/body weight in diet, 5 weeks
Experimental: as §1, §2, §3

Adiponectin = experiment: Real-time PCR gene expression in peripheral tissues: adiponectin; settings: C57bl6j mice, high fat diet, 100 mg/kg/body weight in diet, 5 weeks
Experimental: as §1, §4, §5, §6, §7

[4] = tested on: Fatty acid amide hydrolase (FAAH); experiment: Real-time PCR gene expression in peripheral tissues: FAAH; settings: C57bl6j mice, high fat diet, 100 mg/kg/body weight in diet, 5 weeks
Experimental: as §1, §4, §5
(§8) RNA extraction and gene expression. Total RNA from liver, intestine mucous membrane, adipose tissues, gastrocnemian muscle, pancreas and stomach were extracted with TRIzol reagent (Invitrogen, Carlsbad, USA) according to the manufacturer's instruction. The RNA concentration was determined on nanodrop from the absorbance at 260 nm. Retro-transcription PCRs to synthesize cDNA were performed using an Applied Biosystem Thermal Cycler 2720 and Superscript II (Invitrogen, Carlsbad, USA) according to manufacturer's protocol. Real-time quantitative PCR (RT-qPCR) were performed on cDNA obtained as described above using a high through put system (Biomek 3000, Beckman & Coulter, Fullerton, USA) and a Lightcycler 480 (Roche/Hitachi, Basel, Switzerland) with SYBR Green Master mix+kit (Eurogentec, Philadelphia, USA). Primers for the selected genes were generated using online informatics assistance from the Lightcycler manufacturer (Roche). Databases used to identify the genes were (1) the NCBI database (GenBank) and (2) the IHOP (Information Hyperlinked over Protein) database (www.ihop-net.org/UniPub/iHOP/bng/). Values were expressed as ratio of RNA levels relative to control mice (diets with 0 mg of OEA/kg/body weight) using ΔΔ(Ct) (Livak K J & Schmittgen T D, 2001, Methods 25:402-8). Gene expression of the following genes was measured (abbreviation and GenBank Accession shown in parentheses).
(§9) Statistical analysis. […] Statistical analysis of physiological parameters and gene expression data was performed by one-way ANOVA on Statview software (SAS Institute, Cary, USA). Daily food intake was analyzed using two-way ANOVA on Statview software. Statistical significance was set up at the P<0.05 level, the P<0.01 level and the P<0.001 level. For statistical analysis of the gene expression data, values were calculated relative to 18S expression for each mouse and gene.

[5] = tested on: Protein convertase subtilisin/kexin type 9 (PCSK 9); experiment: Real-time PCR gene expression in peripheral tissues: PCSK9; settings: liver; C57bl6j mice, high fat diet, 100 mg/kg/body weight in diet, 5 weeks
Experimental: as §1, §2, §3

[6] = tested on: G protein coupled receptor 119 (GPR 119); experiment: Real-time PCR gene expression in peripheral tissues: GPR119; settings: proximal intestine; C57bl6j mice, high fat diet, 100 mg/kg/body weight in diet, 5 weeks
Experimental: as §1, §2, §3

[7] = tested on: Cannabinoid receptor 1 (CB 1); experiment: Real-time PCR gene expression in peripheral tissues: CB1; settings: C57bl6j mice, high fat diet, 100 mg/kg/body weight in diet, 5 weeks
Experimental: as §1, §4, §5, §8, §9

[8] = tested on: Uncoupling protein 2 (UCP2); experiment: Real-time PCR gene expression in peripheral tissues: UCP2; settings: muscle; C57bl6j mice, high fat diet, 100 mg/kg/body weight in diet, 5 weeks
Experimental: as §1, §2, §3

Leptin = experiment: Real-time PCR gene expression in peripheral tissues: leptin; settings: C57bl6j mice, high fat diet, 100 mg/kg/body weight in diet, 5 weeks
Experimental: as §1, §4, §5, §8, §9

[9] = tested on: Fatty acid transporter/cluster of differentiation 36 (FAT/CD 36); experiment: Real-time PCR gene expression in peripheral tissues: FAT/CD36; settings: C57bl6j mice, high fat diet, 100 mg/kg/body weight in diet, 5 weeks
Experimental: as §1, §4, §5, §8
Statistical analysis. Results are presented as means±standard error of the means (SEM). Statistical analysis of physiological parameters and gene expression data was performed by one-way ANOVA on Statview software (SAS Institute, Cary, USA). Daily food intake was analyzed using two-way ANOVA on Statview software. Statistical significance was set up at the P<0.05 level, the P<0.01 level and the P<0.001 level. For statistical analysis of the gene expression data, values were calculated relative to 18S expression for each mouse and gene.

For `CCCCCCCC/C=C\CCCCCCCC(=O)N[C@H](C)CO` [KDS 5104, (Z)—(R)-9-octadecenamide, N-(2-hydroxyethyl, 1-methyl)], the “G6P l, ratio of RNA levels relative to control mice” value [1] was 2.12, the “visfatin at ep, ratio of RNA levels relative to control mice” value (Visfatin; epidydimal adipose tissue) was −1.08 and the “visfatin at per, ratio of RNA levels relative to control mice” value (Visfatin; peritoneal adipose tissue) was −1.10. The “overall gene expression pattern (multivariate statistical analysis)” value [2] was “significant shift”, the “CCK i, ratio of RNA levels relative to control mice” value (Cholescystokinin (CCK)) was 1.62 and the “OEA synthase i, ratio of RNA levels relative to control mice” value [3] was −1.36. The “adiponectin at ep, ratio of RNA levels relative to control mice” value (Adiponectin; epidydimal adipose tissue) was −1.02, the “adiponectin at per, ratio of RNA levels relative to control mice” value (Adiponectin; peritoneal adipose tissue) was −1.52 and the “FAAH at ep, ratio of RNA levels relative to control mice” value ([4]; epidydimal adipose tissue) was 9.71. For the same compound, the “FAAH at per, ratio of RNA levels relative to control mice” value ([4]; peritoneal adipose tissue) was 3.82, the “FAAH i, ratio of RNA levels relative to control mice” value ([4]; proximal intestine) was 1.28 and the “PCSK9 l, ratio of RNA levels relative to control mice” value [5] was 1.34. For the same compound, the “GPR119 i, ratio of RNA levels relative to control mice” value [6] was 4.95, the “CB1 at ep, ratio of RNA levels relative to control mice” value ([7]; epidydimal adipose tissue) was −1.48 and the “CB1 at per, ratio of RNA levels relative to control mice” value ([7]; peritoneal adipose tissue) was −3.00. For the same compound, the “CB1 i, ratio of RNA levels relative to control mice” value ([7]; proximal intestine) was −1.25, the “UCP2 m, ratio of RNA levels relative to control mice” value [8] was 1.11 and the “leptin at ep, ratio of RNA levels relative to control mice” value (Leptin; epidydimal adipose tissue) was 1.35. For the same compound, the “leptin at per, ratio of RNA levels relative to control mice” value (Leptin; peritoneal adipose tissue) was −1.32, the “leptin s, ratio of RNA levels relative to control mice” value (Leptin; stomach) was −1.02 and the “FAT/CD36 at ep, ratio of RNA levels relative to control mice” value ([9]; epidydimal adipose tissue) was −2.24. The “FAT/CD36 l, ratio of RNA levels relative to control mice” value ([9]; liver) was 0.88 and the “FAT/CD36 at per, ratio of RNA levels relative to control mice” value ([9]; peritoneal adipose tissue) was 1.01.

Source: patent publication US8742082B2, “Compositions and methods for influencing satiety, lipid metabolism, and fat utilization” (Nestec S.A., priority 2008, dated 2014)
